Measured values: PubChem BioAssay AID248 (DTP/NCI, 2004)
Several values for one entry are separate records, joined by “and”; a condition that tells them apart may be missing. Identical values can stand only once. Toxic doses and inconclusive results are not listed. No stated cut-off is given here; in the data, active means T/C of 150% or more; inactive means T/C below 125%.

Test system: L1210 leukemia ip in BDF1 mice, survival T/C
Test: NCI In Vivo Anticancer Drug Screen. Data for tumor model L1210 Leukemia (intraperitoneal) in B6D2F1 (BDF1) mice
Details: endpoint: mean survival time, higher = longer survival
How it was run: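 Each compound was tested against a transplantable tumor grown in mice. The endpoint was survival, with treated animals benchmarked against vehicle controls as a simple ratio.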

[1] = dose: 100.0 mg/kg/injection, schedule: Q01DX001 (ip), vehicle: saline with Tween-80
[2] = dose: 100.0 mg/kg/injection, schedule: Q01DX009 (ip), vehicle: saline with Tween-80
[3] = dose: 100.0 mg/kg/injection, schedule: Q04DX002 (ip), vehicle: saline with Tween-80
[4] = dose: 100.0 mg/kg/injection, schedule: Q04DX003 (ip), vehicle: saline with Tween-80
[5] = dose: 200.0 mg/kg/injection, schedule: Q01DX001 (ip), vehicle: saline with Tween-80
[6] = dose: 200.0 mg/kg/injection, schedule: Q01DX009 (ip), vehicle: saline with Tween-80
[7] = dose: 200.0 mg/kg/injection, schedule: Q04DX002 (ip), vehicle: saline with Tween-80
[8] = dose: 200.0 mg/kg/injection, schedule: Q04DX003 (ip), vehicle: saline with Tween-80
[9] = dose: 400.0 mg/kg/injection, schedule: Q01DX001 (ip), vehicle: saline with Tween-80
[10] = dose: 400.0 mg/kg/injection, schedule: Q01DX009 (ip), vehicle: saline with Tween-80
[11] = dose: 400.0 mg/kg/injection, schedule: Q04DX002 (ip), vehicle: saline with Tween-80
[12] = dose: 400.0 mg/kg/injection, schedule: Q04DX003 (ip), vehicle: saline with Tween-80
[13] = dose: 100.0 mg/kg/injection, schedule: Q01DX001 (ip), vehicle: carboxymethylcellulose (CMC)
[14] = dose: 200.0 mg/kg/injection, schedule: Q01DX001 (ip), vehicle: carboxymethylcellulose (CMC)
[15] = dose: 100.0 mg/kg/injection, schedule: Q01DX009 (ip), vehicle: saline
[16] = dose: 100.0 mg/kg/injection, schedule: Q04DX003 (ip), vehicle: saline
[17] = dose: 200.0 mg/kg/injection, schedule: Q01DX009 (ip), vehicle: saline
[18] = dose: 200.0 mg/kg/injection, schedule: Q04DX003 (ip), vehicle: saline
[19] = dose: 400.0 mg/kg/injection, schedule: Q01DX009 (ip), vehicle: saline
[20] = dose: 400.0 mg/kg/injection, schedule: Q04DX003 (ip), vehicle: saline
[21] = dose: 25.0 mg/kg/injection, schedule: Q04DX002 (ip), vehicle: saline with Tween-80
[22] = dose: 400.0 mg/kg/injection, schedule: Q01DX001 (ip), vehicle: carboxymethylcellulose (CMC)
[23] = dose: 100.0 mg/kg/injection, schedule: Q04DX002 (ip), vehicle: Klucel (hydroxypropylcellulose) (HPC)
[24] = dose: 200.0 mg/kg/injection, schedule: Q04DX002 (ip), vehicle: Klucel (hydroxypropylcellulose) (HPC)
[25] = dose: 400.0 mg/kg/injection, schedule: Q04DX002 (ip), vehicle: Klucel (hydroxypropylcellulose) (HPC)

Measured: T/C

C/C(CC(C)C)=N\NC(=O)Nc1ccccc1Cl
inactive: dose: 100.0 mg/kg/injection, schedule: Q01DX009 (ip), vehicle: other 102 % of control | dose: 200.0 mg/kg/injection, schedule: Q01DX009 (ip), vehicle: other 89 % of control | dose: 400.0 mg/kg/injection, schedule: Q01DX009 (ip), vehicle: other 102 % of control

COc1ccc(OC)c(N=C2C(=O)Nc3ccc(Br)cc32)c1
inactive: [1] 92 % of control | [2] 100 % of control | [3] 108 % of control and 113 % of control | [4] 101 % of control | [5] 88 % of control | [6] 94 % of control and 100 % of control | [7] 95 % of control and 97 % of control | [8] 93 % of control | [9] 90 % of control | [10] 101 % of control and 92 % of control | [11] 88 % of control and 89 % of control | [12] 88 % of control

Oc1ccc(O)c(-c2ccccc2)c1
inactive: [13] 93 % of control | [14] 101 % of control

CN(C)C(=O)C(=O)C1C=Cc2ccccc21 (stereo not given)
inactive: [4] 93 % of control | [8] 88 % of control | [12] 102 % of control

Cc1cccc(NC(=O)OC/C=C/c2ccccc2)c1
inactive: [1] 114 % of control | [2] 102 % of control and 103 % of control | [3] 105 % of control and 108 % of control | [4] 86 % of control | [5] 103 % of control | [6] 95 % of control and 96 % of control | [7] 95 % of control and 105 % of control | [8] 90 % of control | [9] 97 % of control | [10] 90 % of control | [11] 95 % of control and 105 % of control | [12] 86 % of control

OC1CC2C3CCC(C3)C2C1O (stereo not given)
inactive: [4] 106 % of control | [8] 90 % of control

COCc1ccc(COC)cc1
inactive: [15] 96 % of control | [16] 103 % of control | [17] 95 % of control | [18] 108 % of control | [19] 98 % of control | [20] 100 % of control

CCCCCC(=O)O
inactive: [15] 100 % of control | [17] 98 % of control | [19] 89 % of control

Nc1ccc(S(=O)(=O)Nc2ccc(S(=O)(=O)O)c3ccc(S(=O)(=O)O)cc23)cc1
inactive: dose: 75.0 mg/kg/injection, schedule: Q04DX003 (ip), vehicle: Klucel (hydroxypropylcellulose) (HPC) 95 % of control | dose: 150.0 mg/kg/injection, schedule: Q04DX003 (ip), vehicle: Klucel (hydroxypropylcellulose) (HPC) 93 % of control | dose: 300.0 mg/kg/injection, schedule: Q04DX003 (ip), vehicle: Klucel (hydroxypropylcellulose) (HPC) 98 % of control

Cc1ccc2ccccc2[n+]1[O-]
inactive: dose: 25.0 mg/kg/injection, schedule: Q01DX009 (ip), vehicle: saline with Tween-80 100 % of control | [21] 93 % of control | dose: 50.0 mg/kg/injection, schedule: Q01DX009 (ip), vehicle: saline with Tween-80 96 % of control | dose: 50.0 mg/kg/injection, schedule: Q04DX002 (ip), vehicle: saline with Tween-80 104 % of control | dose: 75.0 mg/kg/injection, schedule: Q01DX001 (ip), vehicle: carboxymethylcellulose (CMC) 94 % of control | [2] 96 % of control | [3] 96 % of control | dose: 150.0 mg/kg/injection, schedule: Q01DX001 (ip), vehicle: carboxymethylcellulose (CMC) 96 % of control

Cc1cccc2c1SCCC2=O
inactive: dose: 100.0 mg/kg/injection, schedule: Q01DX001 (ip), vehicle: saline 92 % of control | dose: 200.0 mg/kg/injection, schedule: Q01DX001 (ip), vehicle: saline 92 % of control | dose: 400.0 mg/kg/injection, schedule: Q01DX001 (ip), vehicle: saline 89 % of control

O=S(=O)(/N=C1C=C/C(=N\S(=O)(=O)c2ccccc2)c2ccccc2\1)c1ccccc1
inactive: [4] 88 % of control | [8] 90 % of control | [12] 93 % of control

CC(CO)(CO)N=Cc1ccc(N(CCCl)CCCl)cc1
inactive: [13] 106 % of control | [14] 97 % of control | [22] 101 % of control

O=C(Nc1cccc(C(F)(F)F)c1)Nc1ccccn1
inactive: dose: 100.0 mg/kg/injection, schedule: Q01DX009 (ip), vehicle: gum acacia 99 % of control | dose: 200.0 mg/kg/injection, schedule: Q01DX009 (ip), vehicle: gum acacia 92 % of control | dose: 400.0 mg/kg/injection, schedule: Q01DX009 (ip), vehicle: gum acacia 89 % of control

Nc1nc(C(=O)O)cc(=O)[nH]1
inactive: [13] 103 % of control | [14] 113 % of control | [22] 96 % of control

CC(C)(O)C(Cc1ccccc1)c1ccccc1 (stereo not given)
inactive: dose: 6.25 mg/kg/injection, schedule: Q04DX002 (ip), vehicle: saline with Tween-80 91 % of control | dose: 12.5 mg/kg/injection, schedule: Q04DX002 (ip), vehicle: saline with Tween-80 98 % of control | [21] 102 % of control

[O-]c1c[n+](-c2ccc3ccccc3c2)no1
inactive: dose: 100.0 mg/kg/injection, schedule: Q04DX003 (ip), vehicle: carboxymethylcellulose (CMC) 114 % of control | dose: 200.0 mg/kg/injection, schedule: Q04DX003 (ip), vehicle: carboxymethylcellulose (CMC) 110 % of control | dose: 400.0 mg/kg/injection, schedule: Q04DX003 (ip), vehicle: carboxymethylcellulose (CMC) 104 % of control

Cc1cc(C)c(CS)c(C)c1
inactive: dose: 25.0 mg/kg/injection, schedule: Q04DX002 (ip), vehicle: Klucel (hydroxypropylcellulose) (HPC) 98 % of control | dose: 50.0 mg/kg/injection, schedule: Q04DX002 (ip), vehicle: Klucel (hydroxypropylcellulose) (HPC) 95 % of control | [23] 98 % of control | [24] 95 % of control | [25] 100 % of control

CCCCCCCCC(C)NCCO (stereo not given)
inactive: dose: 9.5 mg/kg/injection, schedule: Q01DX001 (ip), vehicle: saline 96 % of control | dose: 19.0 mg/kg/injection, schedule: Q01DX001 (ip), vehicle: saline 93 % of control | dose: 38.0 mg/kg/injection, schedule: Q01DX001 (ip), vehicle: saline 90 % of control

O=C1CSC(=O)N1c1ccccc1
inactive: [1] 107 % of control | [16] 93 % of control | [5] 94 % of control | [18] 100 % of control | [9] 98 % of control | [20] 89 % of control

O=[N+]([O-])c1ccc(-n2ccnc2)c([N+](=O)[O-])c1
inactive: [23] 100 % of control | [24] 100 % of control | [25] 93 % of control

Cn1c(=O)c2c(nc(C3CC4C5CCC(C5)C4C3)n2C)n(C)c1=O (stereo not given)
inactive: [13] 103 % of control | [14] 95 % of control | [22] 95 % of control
